Data as given in PMC11311031, “Novel Thienopyrimidine-Hydrazinyl Compounds Induce DRP1-Mediated Non-Apoptotic Cell Death in Triple-Negative Breast Cancer Cells” (Cancers, 2024).
Entries after “also recorded” stand apart in the source; their conditions may differ.

Key:
Assay type in all cases: cell-based
[1] = tested on: mouse embryonic fibroblast (MEF) cells; assay: β-Galactosidase staining (senescence), positive control; details: 250 nM, 24 h
Description: BT-20 cells were plated at 4000/well into a 96-well plate and incubated overnight. […] Four thousand cells/well of senescent MEFs were also seeded. The plate was incubated for 24 h. Once 80–100% confluency was obtained, mouse embryonic fibroblast (MEF) cells were incubated with 250 nM of doxorubicin for 24 h to induce senescence (positive control), followed by a change in media. The cells were incubated for another week and the media was changed every 3–4 days.
The next day, the cells were washed with PBS and fixed with 3% formaldehyde for 5 min. The cells were washed with PBS twice, followed by an addition of β-galactosidase (Research Products International, Racine, WI, USA) stain. The cells were placed in a 37 °C incubator with no CO2 overnight and imaged to detect β-galactosidase staining the next day using the Color Brightfield channel on the Cytation 7 Imaging Multi-Mode Reader.

[2] = tested on: cytochrome c in BT-20 cells; assay: Immunofluorescence of cytochrome c; details: 1 μM, p < 0.0001
Description: Immunofluorescence assays were conducted as previously described. In total, 100,000 BT-20 cells per well were plated on coverslips in a 6-well plate. […] After the incubation period, the media was carefully removed, and the cells were fixed using 1 mL of 4% paraformaldehyde for 15 min at room temperature. The cells were rinsed three times with PBS for 5 min. Five hundred microliters of 0.2% Trition-X100 was added to each well for 10 min to permeabilize the cells. The cells were washed three times with PBS for 5 min each. The cells were then blocked with 3% bovine serum albumin (BSA) in PBS, containing 0.1% Tween, for 2 h at room temperature before incubation with either cytochrome c (1:250), DRP1 (1:50), or phosphorylated-DRP1(1:450) monoclonal antibodies (Cell Signaling Technology, Danvers, MA, USA) overnight at 4 °C. The cells were incubated with either anti-mouse Alexa Fluor™ 594 (Invitrogen, Waltham, MA, USA) or anti-rabbit Alexa Fluor™ 488 at room temperature for 1 h. Nuclei were finally stained with Hoechst 33342 (ImmunoChemistry Technologies, Davis, CA, USA) for 10 min. Images were captured using a Cytation 7 Cell Imaging Multi-Mode Reader.

[3] = tested on: caspases (-3, -7, -8, -9), BAX, BAK, BCL-2, PARP in BT-20 cells; assay: Western blot of apoptotic and anti-apoptotic proteins; details: 1 μM
Description: Subsequently, the cells were washed with ice-cold PBS. The subcellular fraction was obtained by scraping the cells using a cell scrapper in ice-cold cytosolic lysis buffer. Next, the lysates were left on ice for 15 min. Nonyl phenoxypolyethoxylethanol (NP-40) (10% v/v) was introduced in the lysates and subjected to 2–3 min incubation. The lysates were then centrifuged for 10 min at 4 °C and 14,000 rpm. The resultant protein concentration in the lysates was determined using bicinchoninic acid (BCA) assay. Thirty micrograms of the proteins were loaded and separated on a 10% acrylamide SDS-PAGE gel, transferred to a PVDF membrane, and incubated overnight at 4 °C, with primary antibodies against cleaved caspase-3, caspase-3, cleaved caspase-7, caspase-7, cleaved caspase-9, caspase-9, cleaved caspase-8, caspase-8, BAX, BAK, BCL-2, cleaved PARP, PARP, p-DRP1, DRP1, p-MFF, MFF, FIS1, MFN1, MFN2, OPA1, and β-actin. […] ImageJ software (National Institutes of Health, Bethesda, MD, USA) was used to quantify the protein. Cellular proteins were quantified as a ratio to β-actin and were normalized to the vehicle control. The densitometry readings/intensity ratio of each band, andthe original whole western blot (uncropped blots) showing all the bands with the molecular weight markers, is shown in the Supplemental Materials.

BT-20 cells [4] = assay: Nuclear staining with Hoechst 33342; details: 1 μM, 24 h
Description: Briefly, 100,000 cells/well of BT-20 cells were plated in a 6-well plate containing clear sterile coverslips. […] Next, the cells were stained with 0.5% v/v of the Hoechst 33342 dye for 15 min. 4% paraformaldehyde at a concentration of 4%, was used to fix cells at room temperature for another 15 min. After 1 wash with PBS, the cells were mounted on a clear slide, using Fluoromount-G (SouthernBiotech, Birmingham, AL, USA). The slides were visualized to detect nuclear fragmentation using the Cytation 7 Cell Imaging Multi-Mode Reader (Agilent Technologies, Winooski, VT, USA), which provided data related to nuclear fragmentation.

BT-20 cells [5] = assay: Sulforhodamine B (SRB) assay; details: Homo sapiens, 72 h incubation, read-out: IC50 ± SD, BT-20, SRB Assay
Description: (§1) The cytotoxic efficacy of thienopyrimidine derivatives was determined as previously described, using 3 different assays: (1) (3-(4,5-dimethylthiazol-2-yl)-2,5-diphenyltetrazolium bromide) (MTT) (Avantor, Radnor, PA, USA), (2) CellTiter-Blue (CTB) (Promega, Madison, WI, USA), and (3) sulforhodamine B (SRB) (TargetMol, Boston, MA, USA) assay. For these assays, cells were harvested using 0.05% trypsin-ethylenediamine-tetraacetic acid (EDTA) (Corning, Corning, NY, USA), seeded at a density of 3000–5000 cells/well in a 96-well plate, and incubated at 37 °C overnight. The next day, the cells were incubated with different concentrations of the test compounds (0.1, 0.3, 1, 3, 10, 30, or 100 μM) and incubated for 72 h. […] In contrast, vehicle control (cells incubated in drug-free medium) contained less than 0.1% of DMSO.
For the SRB assay, the cells were fixed with 50% (w/v) tri-chloroacetic acid (TCA) (Avantor, Radnor, PA, USA) and incubated at 4 °C for 1 h. The cells were washed 4 times with deionized, distilled water, and air-dried at room temperature. The next day, the cells were stained with 0.04% (w/v) SRB solution for 1 h at room temperature and washed 4 times with 1% (v/v) acetic acid (Avantor, Radnor, PA, USA). After airdrying the plates overnight, 10 mM Tris base solution (pH 10.5) was added to each well and pipetted thoroughly to dissolve the dye, and absorbance was read at 510 nm.

BT-20 cells [6] = assay: MTT cell cytotoxicity assay; details: Homo sapiens, 72 h incubation, read-out: IC50 ± SD, BT-20, MTT Assay
Description: as §1
For the MTT assay, 4 mg/mL MTT was added to the cells and incubated for 3 h to allow for the conversion of MTT (yellow) to formazan crystals (dark blue). Following incubation, the media was aspirated and DMSO was added to solubilize the formazan crystals. The Cytation 7 Cell Imaging Multi-Mode Reader (Agilent Technologies, Winooski, VT, USA) was used to measure the absorbance at 570 nm.

ROS in BT-20 cells = assay: Intracellular ROS (H2DCFDA dye); details: 2 μM, 2 h, p < 0.0001
Text: It has been reported that ROS can cause the death of cancer cells by inducing apoptosis. Indeed, high levels of ROS activate the p53 enzyme system, which promotes late-stage apoptosis by upregulating the levels of pro-apoptotic proteins such as BAK and BAX and downregulating the levels of anti-apoptotic proteins such as BCL-2, BCL-xL, and MCL-1 [120]. In addition, ROS induce permeabilization of the outer mitochondrial membrane by opening the mitochondrial permeability transition pore (mPTP). This alters the electrochemical proton gradient across the mitochondria, causing the release of pro-apoptotic molecules into the cytoplasm, which are involved in apoptotic cell death. […] Cellular esterases hydrolyze the acetyl groups after the dye is taken up by cells, resulting in the formation of H2DCF [124]. Subsequently, intracellular ROS oxidize H2DCF to produce 2′,7′-dichlorofluorescein, which emits green fluorescence (excitation and emission wavelengths of 485 nm and 522 nm, respectively).

[7] = tested on: caspase 3/7 activity in BT-20 cells; assay: Caspase-Glo 3/7 activity assay
Description: Caspase-Glo® 3/7 Assay (Promega, Madison, WI, USA) was used to study the caspase 3/7 activity in BT-20 cells incubated with lead compounds. Briefly, 3000 BT-20 TNBC cells/well were plated in an opaque 96-well plate. […] Next, a mixture of Caspase-Glo® 3/7 buffer and lyophilized Caspase-Glo® 3/7 substrate was equilibrated to room temperature. The plates were removed from the incubator and allowed to adjust to room temperature for 30 min. Next, 100 μL of the Caspase-Glo® 3/7 reagent was added to each well, and the samples were placed in a shaker for 30 s. After 3 h of incubation at room temperature, luminescence, which indicates cleavage of […] caspases (caspase-3 and -7), was measured using a microplate reader (Agilent Technologies, Winooski, VT, USA).

BT-20 cells [8] = assay: CellTiter-Blue (CTB) assay; details: Homo sapiens, 72 h incubation, read-out: IC50 ± SD, BT-20, CTB Assay
Description: as §1
For the CTB assay, the CTB reagent was added to cells and incubated for 3 h to allow the reduction of resazurin (emits a blue color and low fluorescence) by metabolically active cells to resorufin (emits a pink color and high fluorescence). Finally, the plates were shaken for 10 s in a plate shaker, and fluorescence was measured at 560/590 nm.

[9] = tested on: mitochondrial membrane potential in BT-20 cells; assay: Mitochondrial membrane potential (TMRE dye); details: 200 μM, 4 h, p < 0.0001
Description: The mitochondrial membrane potential (MMP) was determined using fluorescence microscopy by staining cellular mitochondria with tetramethylrhodamine ethyl ester (TMRE) dye (Invitrogen, Waltham, MA, USA). […] As a positive control, cells were incubated with carbonyl cyanide 3-chlorophenylhydrazone (CCCP) (TargetMol, Boston, MA, USA), a compound that uncouples mitochondrial oxidative phosphorylation, at a concentration of 200 μM, for 4 h. After incubation with the test compounds, the media was carefully removed from each well and incubated for 20 min with 0.4 µM of TMRE in PBS. Finally, the dye was carefully removed and replaced with fresh PBS. The cells were then imaged to detect MMP using a Cytation 7 Cell Imaging Multi-Mode Reader.

`COc1cccc2c1C(=O)c1c(O)c3c(c(O)c1C2=O)C[C@@](O)(C(=O)CO)C[C@@H]3O[C@H]1C[C@H](N)[C@H](O)[C@H](C)O1` [doxorubicin] was tested, and the “SA-β-gal staining of MEF cells (positive control)” value [1] was “stained blue”.
For `CC(=O)O[C@H]1C(=O)[C@@]2(C)[C@H]([C@H](OC(=O)c3ccccc3)[C@]3(O)C[C@H](OC(=O)[C@H](O)[C@@H](NC(=O)c4ccccc4)c4ccccc4)C(C)=C1C3(C)C)[C@]1(OC(C)=O)CO[C@@H]1C[C@@H]2O` [PTX, Paclitaxel], the “cytochrome c release compared to vehicle control” value [2] was “significantly enhanced”, the “Bcl-2 levels compared to vehicle control” value [3] was “significant decrease” and the “levels of cleaved caspase-3, -7, -8, -9 and total caspase-8 compared to vehicle control” value [3] was “significantly upregulated”. For the same compound, the “level of nuclear fragmentation (positive control)” value (BT-20 cells [4]) was “significantly increased”, the IC50 (BT-20 cells [5]) was 50 nM and the IC50 (BT-20 cells [6]) was 50 nM. For the same compound, the “ROS levels compared to vehicle control” value (ROS in BT-20 cells) was “significantly elevated”, the “level of bioluminescence (activation of caspase-3 and caspase-7)” value ([7]; 0.1 μM) was “significantly increased” and the “caspase-3 and 7 activity (Caspase-Glo 3/7)” value ([7]; 1 µM, n = 2) was “induced; also recorded: increased”. It also gave an IC50 (BT-20 cells [8]) of 70 ± 30 nM.
`N#CC(C#N)=NNc1cccc(Cl)c1` [CCCP, carbonyl cyanide 3-chlorophenylhydrazone] was tested, and the “TMRE fluorescence compared to vehicle control (positive control)” value [9] was “significantly lower”.
